Measured values from article PMC7278228, “Chemical space exploration based on recurrent neural networks: applications in discovering kinase inhibitors” (Journal of Cheminformatics, 2020).
Values belong to the compound of their own block, whether it stands above or below them.

Columns and labels:
Type in all cases: biochemical
CDK4 [1] = target: T1, CDK4 (Homo sapiens, UniProt P11802); assay: mobility shift kinase assay ([…] CDK4, […] ATP, FAM-P8)
Pim1 = Pim1 (Homo sapiens, UniProt P11309); assay: mobility shift kinase assay ([…] Pim1, […] ATP, FAM-P20)
CDK4 [2] = target: T1, CDK4; assay: mobility shift kinase assay, % inhibition at […]
CDK4 [3] = target: T1, CDK4; assay: mobility shift kinase assay, % inhibition at […]; remark: listed apart in the source

T1 sequence (P11802 2-303): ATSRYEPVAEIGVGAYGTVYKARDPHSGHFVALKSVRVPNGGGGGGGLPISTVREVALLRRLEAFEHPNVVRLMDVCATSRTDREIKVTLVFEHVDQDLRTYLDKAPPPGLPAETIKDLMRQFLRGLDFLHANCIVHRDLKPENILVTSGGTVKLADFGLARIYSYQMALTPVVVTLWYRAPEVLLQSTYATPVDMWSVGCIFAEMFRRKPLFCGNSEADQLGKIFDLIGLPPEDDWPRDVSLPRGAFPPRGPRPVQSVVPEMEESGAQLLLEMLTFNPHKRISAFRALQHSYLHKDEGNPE
T1 sequence (P30281 whole entry partner): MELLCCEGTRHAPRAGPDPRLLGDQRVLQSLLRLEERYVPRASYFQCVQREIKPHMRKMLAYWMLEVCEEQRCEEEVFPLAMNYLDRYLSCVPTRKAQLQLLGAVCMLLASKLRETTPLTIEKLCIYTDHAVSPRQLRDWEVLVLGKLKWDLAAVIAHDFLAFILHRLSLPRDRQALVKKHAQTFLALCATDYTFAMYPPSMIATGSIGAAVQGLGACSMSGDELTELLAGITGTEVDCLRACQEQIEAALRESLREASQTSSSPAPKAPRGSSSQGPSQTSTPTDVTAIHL
Sequence of Pim1 (P11309 whole entry): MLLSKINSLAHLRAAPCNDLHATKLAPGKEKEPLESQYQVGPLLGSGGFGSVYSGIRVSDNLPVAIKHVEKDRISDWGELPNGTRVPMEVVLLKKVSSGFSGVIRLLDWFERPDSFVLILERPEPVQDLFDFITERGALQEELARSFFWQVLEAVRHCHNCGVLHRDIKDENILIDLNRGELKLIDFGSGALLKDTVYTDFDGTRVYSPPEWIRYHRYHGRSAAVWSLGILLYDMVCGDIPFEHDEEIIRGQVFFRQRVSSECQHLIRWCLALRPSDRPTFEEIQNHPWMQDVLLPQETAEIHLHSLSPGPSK

- IC50 (CDK4 [1]): 25.3 µM
- IC50 (Pim1): 0.0096 µM
Compound: Oc1ccc(-c2ccc3nnc(-c4ccc5cccc(OC6CCNCC6)c5n4)n3c2)cc1 [MJ-1055]

- Inhibition for CDK4 at 100 μM (%) (CDK4 [2]): 90.74 ± 1.28
Compound: CC(C)n1cc(C(N)=O)c2cnc(Nc3ccc(N4CCNCC4)cc3)nc21 [MJ-115]

- % inhibition at 10 μM (CDK4 [3]): 57.8 ± 5.0
Compound: O=C1N=c2ccccc2=C1c1s/c(=N\N=C2\C(=O)Nc3ccccc32)n(-c2ccc(O)cc2)c1O [AF-399/37285031]
